Measurements from BindingDB's records for doi:10.1002/cbic.200500168 (University of Leipzig, 2005).
pIC50: −log10 of the molar value.

Molecular target: T1, Kinesin-like protein KIF11 (Homo sapiens, UniProt P52732)
T1 sequence (P52732 whole entry): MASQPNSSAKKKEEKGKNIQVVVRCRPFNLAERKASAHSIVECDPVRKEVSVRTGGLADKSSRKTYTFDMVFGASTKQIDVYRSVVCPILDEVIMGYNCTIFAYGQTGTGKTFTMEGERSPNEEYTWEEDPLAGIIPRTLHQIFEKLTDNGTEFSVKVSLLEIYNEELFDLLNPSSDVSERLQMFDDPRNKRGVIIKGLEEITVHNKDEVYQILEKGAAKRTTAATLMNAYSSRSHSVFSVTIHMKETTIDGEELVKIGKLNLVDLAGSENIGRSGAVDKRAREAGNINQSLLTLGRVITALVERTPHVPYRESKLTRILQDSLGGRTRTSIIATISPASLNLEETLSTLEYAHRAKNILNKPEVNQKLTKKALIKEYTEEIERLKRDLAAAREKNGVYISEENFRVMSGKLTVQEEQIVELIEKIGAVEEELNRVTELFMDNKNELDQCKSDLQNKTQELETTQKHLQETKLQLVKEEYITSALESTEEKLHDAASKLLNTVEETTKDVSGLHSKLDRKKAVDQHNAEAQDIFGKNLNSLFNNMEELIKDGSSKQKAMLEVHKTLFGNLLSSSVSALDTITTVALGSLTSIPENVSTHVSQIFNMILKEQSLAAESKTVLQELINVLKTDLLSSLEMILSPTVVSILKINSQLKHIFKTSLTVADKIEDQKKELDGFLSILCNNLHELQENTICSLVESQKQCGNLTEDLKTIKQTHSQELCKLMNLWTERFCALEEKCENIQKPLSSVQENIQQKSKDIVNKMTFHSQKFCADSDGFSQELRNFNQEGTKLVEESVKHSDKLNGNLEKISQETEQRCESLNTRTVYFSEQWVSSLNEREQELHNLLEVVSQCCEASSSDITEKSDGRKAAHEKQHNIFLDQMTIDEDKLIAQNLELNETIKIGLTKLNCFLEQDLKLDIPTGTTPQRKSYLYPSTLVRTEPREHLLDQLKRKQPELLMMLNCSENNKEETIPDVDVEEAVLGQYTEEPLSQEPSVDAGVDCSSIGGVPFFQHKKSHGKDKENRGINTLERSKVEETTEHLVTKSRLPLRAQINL
Test: Malachite Green Assay
Settings: pH 6.8; 25 °C
Description: The ATPase activity of the Eg5 motor domain was measured by using the malachite green assay.

Row | SMILES | pIC50
1 | CCOC(=O)C1C(C)=NC(=S)N[C@H]1c1cccc(O)c1 (stereo not given in full) [Monastrol] | 4.68
2 | Oc1cccc(C2NC(=S)Nc3ccccc32)c1 (stereo not given) [VS-12] | 5.12
3 | Oc1cccc(C2NC(=S)Nc3ccc(Br)cc32)c1 (stereo not given) [VS-17] | 5.24
4 | Oc1cccc(C2NC(=S)Nc3ccc(Cl)cc32)c1 (stereo not given) [VS-42] | 5.24
5 | Oc1cccc(C2NC(=S)Nc3cc(F)ccc32)c1 (stereo not given) [VS-54] | 5.74
6 | Oc1cccc(C2NC(=S)Nc3ccc(F)cc32)c1 (stereo not given) [VS-77] | 5.09
7 | Oc1cccc(C2NC(=S)Nc3cccc(F)c32)c1 (stereo not given) [VS-83] | 5.93
8 | Oc1cccc(C2NC(=S)Nc3cc(F)c(F)cc32)c1 (stereo not given) [VS-87] | 5.56
9 | Cc1ccc2c(c1)NC(=S)NC2c1cccc(O)c1 (stereo not given) [VS-91] | 5.12
10 | Cc1ccc2c(c1)C(c1cccc(O)c1)NC(=S)N2 (stereo not given) [VS-94] | 5.56
